Assay results taken from patent publication US20240261243A1, “NITRIC OXIDE DONORS, COMPOSITIONS, AND METHODS OF USE” (priority 2020, published 2024).
Marks after values point to notes of the source that are not given here.

Tested on: P. aeruginosa (PAK)
Experiment: Combination MIC/MBC assay, BIOC76 with fixed gallium citrate
Assay type: cell-based, Pseudomonas aeruginosa
Description: Combination MIC/MBC assays are useful when you want to look at only a few concentrations of one compound (Gallium citrate) combined with many concentrations of the second compound (BIOC76).
This method also allows us to see the change in both the MIC and MBC of a drug when in combination with another drug. Checkerboard assays only allow us to see changes in the MIC's.
Test articles are added to a 96-well plate so that when a 2× bacterial culture (prepared to 10^6 CFU/ml) is added, the final concentration in all wells was 1×.
All test articles are prepared at 4×→diluted 1:1 when other TA is added (2×) and diluted 1:1 again to 1× when bacteria are added.
TA #1 (Gallium citrate) is prepared and added to entire rows of a plate at a single concentration.
TA #2 (BIOC76) in then prepared and serially diluted in TA #1, so there are 2-fold dilutions of TA #2 combined with a single concentration of TA #1.
Plates were incubated at 37° C. for 18-24 h.
The ΔMIC/IBC is used to show the change in the MIC/IBC of BIOC76 when in combination with Gallium citrate (compared to when BIOC76 is used alone).
ΔMIC/MBC is the fold-decrease in BIOC76 concentration as a result of the combination.
We concluded BIOC76 and gallium citrate maintain synergistic activity so long as the gallium concentration is at least about 0.005 to about 0.02 mg/ml. In this experimental, we set up MIC/MBC assay and serially diluted BIOC76 in rows with fixed concentrations of gallium citrate. […] The results are shown in FIG. 6, and in the following tables: […]

[1] = strain N0049 (PAK), with 0.0156 mg/ml GaCi
[2] = strain N0049 (PAK), with 0.0325 mg/ml GaCi
[3] = strain N0049 (PAK), with 0.065 mg/ml GaCi
[4] = strain N0049 (PAK), with 0.125 mg/ml GaCi
[5] = strain N0049 (PAK), with 0.25 mg/ml GaCi
[6] = strain N0049 (PAK), with 0.5 mg/ml GaCi
[7] = strain N0049 (PAK), with 1 mg/ml GaCi
[8] = strain N0049 (PAK), with 2 mg/ml GaCi

Q: With `O=NN(O)N(CCO)CC1OC2OC3C(CN(CCO)N(O)N=O)OC(OC4C(CN(CCO)N(O)N=O)OC(OC5C(CN(CCO)N(O)N=O)OC(OC6C(CN(CCO)N(O)N=O)OC(OC7C(CN(CCO)N(O)N=O)OC(OC8C(CN(CCO)N(O)N=O)OC(OC1C(O)C2O)C(O)C8O)C(O)C7O)C(O)C6O)C(O)C5O)C(O)C4O)C(O)C3O` (centres unmarked) [BIOC76] as the compound, how does the “MIC BIOC76” value (PAK, alone) read?
A: Its value is 2000 µg/mL.

Q: And the “Combo MIC BIOC76” value (PAK, with 0.0039 mg/ml GaCi)?
A: Its value is 2000 µg/mL.

Q: What about the “Combo MIC BIOC76” value (PAK, with 0.0078 mg/ml GaCi) of the same compound?
A: Its value is 1000 µg/mL.

Q: What about the “Combo MIC BIOC76” value (PAK, with 0.0156 mg/ml GaCi) of the same compound?
A: Its value is 250 to 500 µg/mL.

Q: What about the “Combo MIC BIOC76” value (PAK, with 0.0313 mg/ml GaCi) of the same compound?
A: Its value is 125 µg/mL.

Q: And the “MBC BIOC76 alone” value (strain N0049 (PAK))?
A: The value was 4000 µg/mL.

Q: What about the “MIC BIOC76 alone” value (strain N0049 (PAK)) of the same compound?
A: The value was 2000 µg/mL.

Q: And the “Combo MBC BIOC76” value [1]?
A: Its value is 4 mg/mL.

Q: And the “Δ MBC” value [1]?
A: Its value is 0 fold-decrease.

Q: And the “Δ MIC” value [1]?
A: The value was 4 fold-decrease.

Q: And the “Combo MBC BIOC76” value [2]?
A: Its value is 4 mg/mL.

Q: What about the “Combo MIC BIOC76” value [2] of the same compound?
A: Its value is 125000 µg/mL.

Q: What about the “Δ MBC” value [2] of the same compound?
A: The value was 0 fold-decrease.

Q: What about the “Δ MIC” value [2] of the same compound?
A: The value was 16 fold-decrease.

Q: And the “Combo MBC BIOC76” value [3]?
A: Its value is 4 mg/mL.

Q: And the “Combo MIC BIOC76” value [3]?
A: Its value is less than 60 µg/mL.

Q: And the “Δ MBC” value [3]?
A: The value was 0 fold-decrease.

Q: What about the “Combo MBC BIOC76” value [4] of the same compound?
A: Its value is 4 mg/mL.

Q: What about the “Combo MIC BIOC76” value [4] of the same compound?
A: The value was less than 60 µg/mL.

Q: And the “Δ MBC” value [4]?
A: The value was 0 fold-decrease.

Q: And the “Combo MBC BIOC76” value [5]?
A: The value was 2 mg/mL.

Q: What about the “Combo MIC BIOC76” value [5] of the same compound?
A: The value was less than 60 µg/mL.

Q: And the “Δ MBC” value [5]?
A: Its value is 2 fold-decrease.

Q: And the “Combo MBC BIOC76” value [6]?
A: The value was 2 mg/mL.

Q: And the “Combo MIC BIOC76” value [6]?
A: Its value is less than 60 µg/mL.

Q: What about the “Δ MBC” value [6] of the same compound?
A: Its value is 2 fold-decrease.

Q: And the “Combo MBC BIOC76” value [7]?
A: The value was 4* mg/ml.

Q: What about the “Combo MIC BIOC76” value [7] of the same compound?
A: Its value is less than 60 µg/mL.

Q: What about the “Δ MBC” value [7] of the same compound?
A: Its value is 0* fold-decrease.

Q: And the “Combo MBC BIOC76” value [8]?
A: Its value is 2 mg/mL.

Q: What about the “Combo MIC BIOC76” value [8] of the same compound?
A: The value was less than 60 µg/mL.

Q: What about the “Δ MBC” value [8] of the same compound?
A: The value was 2 fold-decrease.
